From patent US7763287B2, “Extract of Cercis chinensis having anti-oxidant activity and anti-aging activity, and cosmetical composition containing the extract for anti-oxidation, skin-aging protection and wrinkle improvement” (Hankook Pharm. Co., Inc., priority 2002, dated 2010)

How the values were obtained:
[1] = Hydroxyl radical scavenging activity (deoxyribose/TBA, method of Halliwell); type: biochemical; settings: 10 μg of sample, total volume 1 ml
Procedure: Hydroxyl radical (HO.) is generated by the reaction of a metal ion or a superoxide radical. Owing to its strong reactivity, hydroxyl radical causes oxidative damages to DNA, protein and lipid in vivo. Nitric oxide (NO.) is reacted with a superoxide radical to generate a peroxy nitrite (ONOO—), also having strong reactivity. […] Particularly, each compound was mixed with 10 μg of a sample dissolved in DMSO, phosphate buffer (20 mM, pH 7.4) 5.6 mM deoxyribose, 0.1 mM FeCl3, 1 mM H2O2 and 0.1 mM ascorbic acid, making total volume 1 ml, which was then reacted at 37° C. for 60 minutes. 250 μl of 20% TCA and 250 μl of 1% TBA solution (dissolved in 50 mM NaOH) were added to the reaction solution, followed by thermal reaction at 95° C. for 5 minutes. After completing the reaction, OD532 was measured. Hydroxyl radical scavenging activity was calculated by the below
<Mathematical Formula 3>. BHA and α-tocopherol were used for a positive control. Hydroxyl Radical Scavenging Activity (%)=(Acontrol−Asample)/(Acontrol−Ablank)×100 <Mathematical Formula 3>
Acontrol: Optical density of control group well (sample was not added),
Asample: Optical density of experimental group well (sample was added),
Ablank: Optical density of well not added with sample, TCA and TBA

[2] = Superoxide radical scavenging activity (xanthine/xanthine oxidase, NBT); type: biochemical; settings: Table 6
Procedure: Superoxide radical (O^2−) itself has a little reactivity, but is easily changed into H2O2 that generates hydroxyl radical having strong reactivity or is reacted with nitric oxide (NO.) to generate peroxy nitrite (ONOO^−) having strong reactivity, too. Thus, it might be a reason for oxidation of SH-group, nitration of protein tyrosine, lipid peroxidation and DNA damage. […] Basically, measurement of superoxide radical scavenging activity was performed by investigating the activity of superoxide dismutase (SOD), an enzyme scavenging superoxide by dismutation of the same. In the present invention, an activity of a sample to inhibit superoxide production by the enzyme reaction of xanthine/xanthine oxidase and its another activity to inhibit reaction (NBT+20^2−→NBTH2+2O2) generating formazan by reduction of nitro blue tetrazolium (referred as ‘NBT’ hereinafter) were measured. Particularly, wells of a 96-well plate were supplemented with 50 μl of 4 mM xanthine (Sigma), 50 μl of […] NBT (Sigma), 50 μl of 50 mM phosphate buffer (pH 7.8, 1 mM EDTA) and 10 μl of each sample, into which 40 μl of xanthine oxidase was added to induce a reaction. After the reaction was completed, each reaction solution was collected as scheduled, and OD550 was measured with an ELISA reader. […] Superoxide Radical Scavenging Activity (%)=(Acontrol−Asample)/(Acontrol−Ablank)×100 <Mathematical Formula 4> […]

[3] = DPPH radical scavenging activity; type: biochemical
Procedure: In order to extract an effective ingredient having an anti-oxidant activity from Cercis chinensis, an experiment was performed following the procedure represented in a schematic diagram of FIG. 1. Particularly, 1 kg of leaves and stems of Cercis chinensis, dried in shadow, were grinded to powder using a pulverizer, which was extracted by ethanol (EtOH) at room temperature twice at intervals of two weeks. For the extraction, ethanol solutions were prepared by adding ethanol gradually, 10% at a time, from 0% to 100%. The prepared ethanol solutions were used for the extraction. […] But, it looses absorbance when being scavenged. Based on that point, an anti-oxidant activity can be measured using DPPH. […] Then, each solution was distributed into a 96 well plate by 10 μl each, into which 190 μl of DPPH(Sigma, St. Louis, Mo, USA) solution whose ethanol concentration was 2×10^−4 M/ml was added. The plate was just left at room temperature for 30 minutes. Finally, OD517 was measured at 517 nm. For a control, DMSO was added instead of the sample, and changes of optical density were investigated. […] DDPH Radical Scavenging Activity (%)=(Acontrol−Asample)/(Acontrol)×100 <Mathematica Formula 1>
Acontrol: Optical density of control group (sample was not added),
Asample: Optical density of experimental group (sample was added).
In order to identify a fraction having an anti oxidant activity among hexane Fr, EtOAc Fr and BuOH Fr obtained above, a DPPH radical scavenging activity was measured using each extract of each fraction following the method used above. At this time, vitamin E, known to have high DPPH radical scavenging activity, was used as a comparing group.
At this time, BHA (tert-butyl-4 hydroxyanisole) and α-tocopherol, synthetic anti-oxidant agents, were used as positive controls.

HEK-N/F cells [4] = assay: Cell protection from UV irradiation (DNA damage, ethidium homodimer fluorescence); type: cell-based, human; settings: 35 mJ/cm^2 UVB, Et2 fluorescence (DNA damage)
Procedure: UV irradiation induces DNA damage and DNA-protein connection by increasing active oxygen in cells. When HEK-N/F cells were irradiated by 35 mJ/cm^2 of UVB, DNA chains in nucleus were cut. After uniting the broken chains to ethidium homodimer (Et2), a DNA chain intercalating fluorescent dye, extent of fluorescence was measured to quantify the amount of DNA damage. Particularly, HEK-N/F cells were cultured on serum-free KGM medium (Clonetics), which were inoculated into wells of a 24-well plate by 0.5−4×10^4 cells/2 cm^2. Then, the cells were cultured for 18 hours, after which a sample was treated thereto for 2 hours. […] The cells exposed on UV were further cultured for 1-7 hours, and then, […] ethidium homodimer (Et2, Millipore) was added. 30 minutes later, fluorescence was measured with Millipore microplate fluorometer Cytofluor 2350 (excitation: 485 nm, emission: 645 nm).

rat brain homogenates = assay: Lipid peroxidation inhibitory activity (Fe2+/ascorbic acid, TBA method); settings: Table 4
HEK-N/F cells [5] = assay: Prolongation of life span of a cell; type: cell-based, human; settings: 3 μg/ml during culture
Procedure: HEK-N/F cells were obtained from foreskin of a newborn baby after its fibroblasts, another major component of skin, were treated with uridine bromide. Then, the cells were cultured in DMEM medium supplemented with 10 FBS. HEK-N/F cells were diluted consecutively at the ratio of 1:4 during the culture. Before being treated with samples, the cells were grown up to 3 PDL (population doubling level). During the culture, each sample was administered by […]. Medium was replaced every three days by fresh medium supplemented with a culture solution containing the equal concentration of the sample.

[6] = Nitric oxide scavenging activity; type: biochemical
HEK-N/F cells [7] = assay: Protection of cells from oxidative damage induced by t-butylhydroperoxide; type: cell-based, human; settings: 1.5 mM t-butylhydroperoxide 3 hours
Procedure: t-butylhydroperoxide is metabolized into a free radical intermediate as it comes in a cell, so that it causes lipid peroxidation, resulting in cell damage. This phenomenon is similar to that caused by oxidataive stress accumulated in cells and tissues. […] HEK-N/F, an epidermal cell line of a newborn baby, was treated with 1.5 mM of t-butylhydroxyperoxide for 3 hours.

Superoxide radical scavenging activity IC50 [2]: 12.1 ± 1.1 µg/mL | DPPH radical scavenging activity IC50 ([3]; Table 3): 7.3 ± 0.3 µg/mL | Lipid Peroxidation Inhibitory Activity IC50 (rat brain homogenates): 0.95 ± 0.06 µg/mL
Compound: O=c1c(O)c(-c2cc(O)c(O)c(O)c2)oc2cc(O)cc(O)c12 [Chemical Formula 9, myricetin]
Hydroxyl radical scavenging activity (%) [1]: 8.7% | DPPH radical scavenging activity (in words) [3]: strong radical scavenging activity | fluorescence lower than that of a control (HEK-N/F cells [4]): 54.7% | average life span of a cell (HEK-N/F cells [5]): 56 days | life span, times as long as that of a control (HEK-N/F cells [5]): 1.6 times | Nitric oxide scavenging activity (in words) [6]: comparatively high nitric oxide scavenging activity | Cell survival rate (%) (HEK-N/F cells [7]): 61.0±4.5% | TBARS (pmol/mg protein) (HEK-N/F cells [7]; compound 50.0 µg/ml): 810.7 ± 77.0 pmol/mg protein
